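Results reflect a 48-hour exposure of cells in 96-well plates to compound at five concentrations. GI50 marks 50% less growth. TGI: concentration producing complete growth inhibition.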
Experiments:
Experiment in all cases: DTP human tumour cell line panel, 48 h
786-0 renal = tested on: 786-0 renal
A498 renal = tested on: A498 renal
A549 NSCLC = tested on: A549 NSCLC
ACHN renal = tested on: ACHN renal
BT-549 breast = tested on: BT-549 breast
CAKI-1 renal = tested on: CAKI-1 renal
CCRF-CEM leukemia = tested on: CCRF-CEM leukemia
COLO 205 colon = tested on: COLO 205 colon
DU-145 prostate = tested on: DU-145 prostate
EKVX NSCLC = tested on: EKVX NSCLC
HCC-2998 colon = tested on: HCC-2998 colon
HCT-116 colon = tested on: HCT-116 colon
HCT-15 colon = tested on: HCT-15 colon
HL-60(TB) leukemia = tested on: HL-60(TB) leukemia
HOP-62 NSCLC = tested on: HOP-62 NSCLC
HOP-92 NSCLC = tested on: HOP-92 NSCLC
HS 578T breast = tested on: HS 578T breast
HT29 colon = tested on: HT29 colon
IGROV1 ovarian = tested on: IGROV1 ovarian
K-562 leukemia = tested on: K-562 leukemia
KM12 colon = tested on: KM12 colon
LOX IMVI melanoma = tested on: LOX IMVI melanoma
M14 melanoma = tested on: M14 melanoma
MALME-3M melanoma = tested on: MALME-3M melanoma
MCF7 breast = tested on: MCF7 breast
MDA-MB-231 breast = tested on: MDA-MB-231 breast
MDA-MB-435 = tested on: MDA-MB-435
MOLT-4 leukemia = tested on: MOLT-4 leukemia
NCI-H23 lung = tested on: NCI-H23 lung
NCI-H460 lung = tested on: NCI-H460 lung
NCI-H522 lung = tested on: NCI-H522 lung
OVCAR-4 ovarian = tested on: OVCAR-4 ovarian
OVCAR-5 ovarian = tested on: OVCAR-5 ovarian
OVCAR-8 ovarian = tested on: OVCAR-8 ovarian
PC-3 prostate = tested on: PC-3 prostate
RPMI-8226 leukemia = tested on: RPMI-8226 leukemia
RXF 393 renal = tested on: RXF 393 renal
SF-268 CNS = tested on: SF-268 CNS
SF-295 CNS = tested on: SF-295 CNS
SF-539 CNS = tested on: SF-539 CNS
SK-MEL-2 melanoma = tested on: SK-MEL-2 melanoma
SK-MEL-28 melanoma = tested on: SK-MEL-28 melanoma
SK-MEL-5 melanoma = tested on: SK-MEL-5 melanoma
SK-OV-3 ovarian = tested on: SK-OV-3 ovarian
SN12C renal = tested on: SN12C renal
SNB-19 CNS = tested on: SNB-19 CNS
SNB-75 CNS = tested on: SNB-75 CNS
SR leukemia = tested on: SR leukemia
SW-620 colon = tested on: SW-620 colon
TK-10 renal = tested on: TK-10 renal
U251 CNS = tested on: U251 CNS
UACC-257 melanoma = tested on: UACC-257 melanoma
UACC-62 melanoma = tested on: UACC-62 melanoma
UO-31 renal = tested on: UO-31 renal

COc1cc2c(cc1OC)C(Sc1ccc(F)cc1)c1c(nc(N)c(C#N)c1N)O2 (configuration not stated)
GI50 (786-0 renal): 1090 nM
TGI (786-0 renal): 2320 nM
GI50 (A498 renal): 1290 nM
TGI (A498 renal): 2570 nM
GI50 (A549 NSCLC): 1530 nM
TGI (A549 NSCLC): 3000 nM
GI50 (ACHN renal): 1610 nM
TGI (ACHN renal): 2980 nM
GI50 (BT-549 breast): 760 nM
TGI (BT-549 breast): 2170 nM
GI50 (CAKI-1 renal): 1040 nM
TGI (CAKI-1 renal): 2220 nM
GI50 (CCRF-CEM leukemia): 164 nM
TGI (CCRF-CEM leukemia): > 100000 nM
GI50 (COLO 205 colon): 1100 nM
TGI (COLO 205 colon): 2470 nM
GI50 (DU-145 prostate): 1580 nM
TGI (DU-145 prostate): 2920 nM
GI50 (EKVX NSCLC): 1460 nM
TGI (EKVX NSCLC): 2840 nM
GI50 (HCC-2998 colon): 1510 nM
TGI (HCC-2998 colon): 2970 nM
GI50 (HCT-116 colon): 780 nM
TGI (HCT-116 colon): 2140 nM
GI50 (HCT-15 colon): 399 nM
TGI (HCT-15 colon): 1660 nM
GI50 (HL-60(TB) leukemia): 319 nM
TGI (HL-60(TB) leukemia): 1280 nM
GI50 (HOP-62 NSCLC): 1710 nM
TGI (HOP-62 NSCLC): 3190 nM
GI50 (HOP-92 NSCLC): 1190 nM
TGI (HOP-92 NSCLC): 2640 nM
GI50 (HS 578T breast): 1680 nM
TGI (HS 578T breast): 4920 nM
GI50 (HT29 colon): 1600 nM
TGI (HT29 colon): 3210 nM
GI50 (IGROV1 ovarian): 534 nM
TGI (IGROV1 ovarian): 1950 nM
GI50 (K-562 leukemia): 426 nM
TGI (K-562 leukemia): > 100000 nM
GI50 (KM12 colon): 1480 nM
TGI (KM12 colon): 2900 nM
GI50 (LOX IMVI melanoma): 325 nM
TGI (LOX IMVI melanoma): 1090 nM
GI50 (M14 melanoma): 1160 nM
TGI (M14 melanoma): 2490 nM
GI50 (MALME-3M melanoma): 1200 nM
TGI (MALME-3M melanoma): 2540 nM
GI50 (MCF7 breast): 477 nM
TGI (MCF7 breast): 2040 nM
GI50 (MDA-MB-231 breast): 1360 nM
TGI (MDA-MB-231 breast): 2700 nM
GI50 (MDA-MB-435): 1220 nM
TGI (MDA-MB-435): 2540 nM
GI50 (MOLT-4 leukemia): 382 nM
TGI (MOLT-4 leukemia): > 100000 nM
GI50 (NCI-H23 lung): 1270 nM
TGI (NCI-H23 lung): 2850 nM
GI50 (NCI-H460 lung): 1270 nM
TGI (NCI-H460 lung): 2960 nM
GI50 (NCI-H522 lung): 1250 nM
TGI (NCI-H522 lung): 2530 nM
GI50 (OVCAR-4 ovarian): 1540 nM
TGI (OVCAR-4 ovarian): 2930 nM
GI50 (OVCAR-5 ovarian): 1650 nM
TGI (OVCAR-5 ovarian): 3110 nM
GI50 (OVCAR-8 ovarian): 1260 nM
TGI (OVCAR-8 ovarian): 2540 nM
GI50 (PC-3 prostate): 1050 nM
TGI (PC-3 prostate): 2470 nM
GI50 (RPMI-8226 leukemia): 754 nM
GI50 (RXF 393 renal): 751 nM
TGI (RXF 393 renal): 2030 nM
GI50 (SF-268 CNS): 1390 nM
TGI (SF-268 CNS): 2900 nM
GI50 (SF-295 CNS): 1620 nM
TGI (SF-295 CNS): 3000 nM
GI50 (SF-539 CNS): 1190 nM
TGI (SF-539 CNS): 2490 nM
GI50 (SK-MEL-2 melanoma): 859 nM
TGI (SK-MEL-2 melanoma): 2140 nM
GI50 (SK-MEL-28 melanoma): 982 nM
TGI (SK-MEL-28 melanoma): 2340 nM
GI50 (SK-MEL-5 melanoma): 1570 nM
TGI (SK-MEL-5 melanoma): 2950 nM
GI50 (SK-OV-3 ovarian): 1740 nM
TGI (SK-OV-3 ovarian): 3170 nM
GI50 (SN12C renal): 1130 nM
TGI (SN12C renal): 2360 nM
GI50 (SNB-19 CNS): 1250 nM
TGI (SNB-19 CNS): 2540 nM
GI50 (SNB-75 CNS): 1330 nM
TGI (SNB-75 CNS): 2700 nM
GI50 (SR leukemia): 281 nM
TGI (SR leukemia): > 100000 nM
GI50 (SW-620 colon): 709 nM
TGI (SW-620 colon): 2040 nM
GI50 (TK-10 renal): 1470 nM
TGI (TK-10 renal): 2800 nM
GI50 (U251 CNS): 738 nM
TGI (U251 CNS): 2080 nM
GI50 (UACC-257 melanoma): 1340 nM
TGI (UACC-257 melanoma): 2670 nM
GI50 (UACC-62 melanoma): 1200 nM
TGI (UACC-62 melanoma): 2500 nM
GI50 (UO-31 renal): 511 nM
TGI (UO-31 renal): 1930 nM

Source: PubChem BioAssay (NCI)
